Data reported in patent publication US20160052926A1, “NOVEL PYRIMIDINE AND PYRIDINE COMPOUNDS AND USAGE THEREOF” (HUTCHISON MEDIPHARMA LIMITED, priority 2013, published 2016).

Experiments:
[1] = target: Recombinant human FGFR2 (Homo sapiens, UniProt P21802); assay: Transcreener Kinase Assay of FGFR2; format: biochemical; details: read-out: FGFR2 (FP) IC50
[2] = tested on: RT-112; assay: Cellular Proliferation Assay (Cell Counting Kit-8), RT-112; format: cell-based; details: Homo sapiens, RT-112 cells, 72 hours
Experimental: (§1) Cellular Proliferation Assay
(§2) • KG-1 (ATCC Accession No. CCL-246), • SNU-16 (ATCC Accession No. CRL-5974), • RT-112 (ECACC Accession No. 85061106)
(§3) • FGFR related cancer cell proliferation is measured in 96-well plates using Cell Counting Kit-8 (Dojindo CK04-13). • Seed 30000 cells/well of KG1, 5000 cells/well of SNU16, and 1000 cells/well of RT112 in a volume of 100 μL/well in growth media. • After 24 hours, dilute the compound to 10, 3.3, 1.1, 0.37, 0.12, 0.04, 0.013, 0.004 μM, keeping the DMSO concentration at 5%. • Add 10 μL of 8-point compound series to the wells of culturing cells. • Incubate at 37° C. and 5% CO2 for 72 hours • Add 10 μL/well of CCkit8 and incubate at 37° C. and 5% CO2 for an hour • Detect the optical density of each well at 450 nm on Labsystems Multiskan K3.
(§4) • ODcompound well represents the optical density of cells treated with compound. • ODcell well represents the optical density of cells without compounds treatment. (only 0.5% DMSO) • ODcontrol well represents the optical density of culture media background
(§5) The concentration of compound providing 50% of proliferation inhibition was calculated using Excel Fit.

[3] = target: Recombinant human FGFR1 (Homo sapiens, UniProt P11362); assay: Transcreener Kinase Assay of FGFR1; format: biochemical; details: read-out: FGFR1 (FP) IC50
Chain of Recombinant human FGFR1 (P11362 22-822): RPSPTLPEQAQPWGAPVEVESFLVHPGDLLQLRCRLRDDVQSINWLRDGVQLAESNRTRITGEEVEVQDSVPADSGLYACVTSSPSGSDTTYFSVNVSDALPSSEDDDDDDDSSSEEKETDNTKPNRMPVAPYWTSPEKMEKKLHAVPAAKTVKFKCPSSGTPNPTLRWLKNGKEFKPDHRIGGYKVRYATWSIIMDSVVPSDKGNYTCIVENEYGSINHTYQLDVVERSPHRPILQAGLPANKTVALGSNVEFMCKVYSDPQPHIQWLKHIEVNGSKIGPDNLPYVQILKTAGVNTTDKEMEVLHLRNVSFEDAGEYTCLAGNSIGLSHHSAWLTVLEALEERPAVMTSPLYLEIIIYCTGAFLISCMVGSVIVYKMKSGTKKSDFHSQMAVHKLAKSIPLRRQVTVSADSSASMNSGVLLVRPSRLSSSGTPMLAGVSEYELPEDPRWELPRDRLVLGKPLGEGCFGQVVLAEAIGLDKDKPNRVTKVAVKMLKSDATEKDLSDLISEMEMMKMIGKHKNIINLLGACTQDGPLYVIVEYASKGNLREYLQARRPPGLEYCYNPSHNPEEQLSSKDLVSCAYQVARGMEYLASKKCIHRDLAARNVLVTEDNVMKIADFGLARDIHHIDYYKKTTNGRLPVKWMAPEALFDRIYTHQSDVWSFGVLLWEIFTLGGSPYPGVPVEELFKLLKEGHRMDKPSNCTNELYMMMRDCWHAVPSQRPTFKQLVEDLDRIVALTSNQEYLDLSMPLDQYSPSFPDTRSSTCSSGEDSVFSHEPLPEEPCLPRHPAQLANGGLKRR

[4] = tested on: SNU-16; assay: Cellular Proliferation Assay (Cell Counting Kit-8), SNU-16; format: cell-based; details: Homo sapiens, SNU-16 cells, 72 hours
Experimental: as §1, §2, §3, §4, §5

[5] = target: FGFR3 kinase (Homo sapiens, UniProt P22607); assay: Z-Lyte Kinase Assay of FGFR3; format: biochemical
Chain of FGFR3 kinase (P22607 23-806): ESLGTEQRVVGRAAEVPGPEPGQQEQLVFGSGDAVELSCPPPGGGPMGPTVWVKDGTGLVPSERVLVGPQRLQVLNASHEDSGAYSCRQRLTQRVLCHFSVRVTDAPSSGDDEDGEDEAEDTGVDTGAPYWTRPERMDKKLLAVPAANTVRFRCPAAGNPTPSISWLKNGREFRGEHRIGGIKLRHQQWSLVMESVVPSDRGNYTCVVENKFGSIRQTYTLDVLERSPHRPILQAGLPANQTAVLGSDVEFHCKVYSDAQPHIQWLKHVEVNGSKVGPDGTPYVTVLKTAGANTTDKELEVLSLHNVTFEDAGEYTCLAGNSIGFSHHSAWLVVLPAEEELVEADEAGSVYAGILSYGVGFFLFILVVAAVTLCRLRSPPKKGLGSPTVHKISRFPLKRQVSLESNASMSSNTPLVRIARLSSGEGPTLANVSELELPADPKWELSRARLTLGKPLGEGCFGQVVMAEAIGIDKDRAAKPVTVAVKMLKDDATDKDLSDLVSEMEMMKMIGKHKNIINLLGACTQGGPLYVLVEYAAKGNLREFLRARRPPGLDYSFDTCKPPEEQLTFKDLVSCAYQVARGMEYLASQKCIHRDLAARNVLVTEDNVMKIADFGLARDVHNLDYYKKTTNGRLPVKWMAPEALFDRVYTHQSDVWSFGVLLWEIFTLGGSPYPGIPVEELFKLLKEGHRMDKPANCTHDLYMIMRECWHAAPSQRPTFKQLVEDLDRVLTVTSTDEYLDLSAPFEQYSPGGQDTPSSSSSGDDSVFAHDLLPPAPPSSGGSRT
Summary of the method: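 Kinase at 0.7 μg/ml with 4 μM Z-LYTE Tyr 4 peptide and ATP diluted to 300 uM (working solution, 1.33× buffer); compounds 1–0.00046 μM, 2% DMSO final. Kinase reaction and development each 1 h at RT (25-30[…]); coumarin (445 nm) and fluorescein (520 nm) emission read, inhibition from % phosphorylation.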

[6] = tested on: KG-1; assay: Cellular Proliferation Assay (Cell Counting Kit-8), KG-1; format: cell-based; details: Homo sapiens, KG1 cells, 72 hours
Experimental: as §1, §2, §3, §4, §5

Chain of Recombinant human FGFR2 (P21802 22-821): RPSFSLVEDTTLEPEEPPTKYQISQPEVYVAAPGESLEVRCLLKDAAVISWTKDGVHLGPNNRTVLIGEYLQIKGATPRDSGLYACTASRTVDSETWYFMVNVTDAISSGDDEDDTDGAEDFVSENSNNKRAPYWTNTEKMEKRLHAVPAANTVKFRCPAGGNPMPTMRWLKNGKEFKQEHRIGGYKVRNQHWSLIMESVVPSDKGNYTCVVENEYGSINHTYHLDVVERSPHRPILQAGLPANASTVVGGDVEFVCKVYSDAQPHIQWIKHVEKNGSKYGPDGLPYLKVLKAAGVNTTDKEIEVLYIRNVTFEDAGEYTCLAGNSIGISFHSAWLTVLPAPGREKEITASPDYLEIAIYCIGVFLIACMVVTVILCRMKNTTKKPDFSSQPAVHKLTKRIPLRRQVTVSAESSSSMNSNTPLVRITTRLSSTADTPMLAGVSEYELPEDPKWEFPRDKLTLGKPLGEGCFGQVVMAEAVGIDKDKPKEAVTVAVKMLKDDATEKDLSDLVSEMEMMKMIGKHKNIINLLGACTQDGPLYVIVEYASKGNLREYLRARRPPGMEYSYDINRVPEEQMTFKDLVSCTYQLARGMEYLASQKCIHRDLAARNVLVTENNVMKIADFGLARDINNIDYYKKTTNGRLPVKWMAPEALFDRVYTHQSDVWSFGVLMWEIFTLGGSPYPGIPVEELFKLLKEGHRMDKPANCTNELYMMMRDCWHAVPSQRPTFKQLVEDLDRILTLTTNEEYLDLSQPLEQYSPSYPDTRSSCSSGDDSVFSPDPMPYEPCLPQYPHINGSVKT

Structure (SMILES)	IC50 [1]	IC50 [2]	IC50 [3]	IC50 [4]	IC50 [5]	IC50 [6]
CNC(=O)c1cc(OC)c(Cl)c(/C=C/c2cnc(Nc3ccc(N4C[C@@H](C)N[C@@H](C)C4)cc3)nc2)c1F [Compound 8]	0.005 µM	0.019 µM	0.006 µM	0.014 µM	0.014 µM	0.011 µM
CCn1cc(Nc2ncc(OCc3c(F)c(OC)cc(C(=O)NC)c3F)cn2)cn1 [Compound 203]	0.008 µM	0.037 µM	0.011 µM	0.023 µM	0.014 µM	0.011 µM
CCn1cc(Nc2ncc(CCc3cc(OC)cc(C(=O)NC)c3F)cn2)cn1 [Compound 27]	0.042 µM	0.402 µM	0.256 µM	0.293 µM	0.021 µM	0.34 µM
CNC(=O)c1cc(CCc2cnc(Nc3ccnc(C)c3)nc2)c(F)c(OC)c1 [Compound 60, 4-fluoro-3-methoxy-N-methyl-5-(2-(2-((2-methylpyridin-4-yl)amino)pyrimidin-5-yl)ethyl)benzamide]	0.007 µM	0.137 µM	0.016 µM	0.046 µM	0.023 µM	0.051 µM
CNC(=O)c1cc(CCc2cnc(Nc3cn[nH]c3)nc2)c(F)c(OC)c1 [Compound 102]	0.007 µM	0.461 µM	0.012 µM	0.055 µM	0.018 µM	0.033 µM
CONC(=O)c1cc(CCc2cnc(Nc3cn[nH]c3)nc2)cc(OC)c1 [Compound 101]	0.004 µM	0.257 µM	0.008 µM	0.042 µM	0.015 µM	0.022 µM
CNC(=O)c1cc(CCc2cnc(Nc3cnn(CCOC)c3)nc2)c(F)c(OC)c1 [Compound 120]	0.007 µM	0.165 µM	0.015 µM	0.031 µM	0.017 µM	0.032 µM
CNC(=O)c1cc(COc2cnc(Nc3ccc(N4CCNC(C)(C)C4)cc3)nc2)c(F)c(OC)c1 [Compound 193]	0.005 µM	0.021 µM	0.008 µM	0.017 µM	0.011 µM	0.062 µM
CCN(CC)CCn1cc(Nc2ncc(OCc3cc(C(=O)NC)cc(OC)c3Cl)cn2)cn1 [Compound 190]	0.009 µM	0.017 µM	0.012 µM	0.016 µM	0.007 µM	0.037 µM
COc1cc(C(=O)NC2CC2)cc(CCc2cnc(Nc3cnn(C)c3)nc2)c1Cl [Compound 157]	0.01 µM	0.254 µM	0.02 µM	0.048 µM	0.019 µM	0.048 µM
CNC(=O)c1cc(CCc2cnc(Nc3cnn(C)c3)nc2)c(F)c(OC)c1 [Compound 25]	0.008 µM	0.218 µM	0.015 µM	0.023 µM	0.03 µM	0.039 µM
CCN1CCN(c2ccc(Nc3ncc(CCc4cc(C(=O)NC)cc(OC)c4F)cn3)cc2)C[C@H]1C [Compound 53]	0.004 µM	0.049 µM	0.005 µM	0.019 µM	0.008 µM	0.014 µM
CNC(=O)c1cc(CCc2cnc(Nc3cnn(-c4cccnc4)c3)nc2)c(F)c(OC)c1 [Compound 128]	0.01 µM	0.112 µM	0.02 µM	0.015 µM	0.014 µM	0.047 µM
CNC(=O)c1cc(CCc2cnc(Nc3cnn([C@H]4CCN(C)C4)c3)nc2)c(F)c(OC)c1 [Compound 168]	0.011 µM	0.414 µM	0.016 µM	0.016 µM	0.015 µM	0.032 µM
CCN(CC)CCn1cc(Nc2ncc(OCc3cc(C(=O)NC)cc(OC)c3F)cn2)cn1 [Compound 189]	0.02 µM	0.023 µM	0.023 µM	0.028 µM	0.013 µM	0.038 µM
CNC(=O)c1cc(COc2cnc(Nc3ccc(N4C[C@@H](C)N[C@@H](C)C4)cc3)nc2)c(F)c(OC)c1 [Compound 192]	0.006 µM	0.014 µM	0.012 µM	0.002 µM	0.008 µM	0.008 µM
CCn1cc(Nc2ncc(OCc3cc(C(=O)NC)cc(OC)c3F)cn2)cn1 [Compound 181, 3-(((2-((1-ethyl-1H-pyrazol-4-yl)amino)pyrimidin-5-yl)oxy)methyl)-4-fluoro-5-methoxy-N-methylbenzamide]	0.005 µM	0.035 µM	0.019 µM	0.008 µM	0.009 µM	0.026 µM
CNC(=O)c1cc(CCc2cnc(Nc3cnn(C(C)C)c3)nc2)c(Cl)c(OC)c1 [Compound 121]	0.006 µM	0.065 µM	0.009 µM	0.018 µM	0.015 µM	0.007 µM
CNC(=O)c1cc(COc2cnc(Nc3ccc(N4C[C@@H](C)N[C@@H](C)C4)c(F)c3)nc2)c(F)c(OC)c1 [Compound 195]	0.006 µM	0.025 µM	0.012 µM	0.016 µM	0.012 µM	0.025 µM
CCN1CCN(c2ccc(Nc3ncc(CCc4cc(C(=O)NC)cc(OC)c4C)cn3)cc2)CC1 [Compound 39]	0.041 µM	0.342 µM	0.043 µM	0.071 µM	0.043 µM	0.049 µM
CCn1cc(Nc2ncc(CCc3cc(C(=O)NC)cc(OC)c3F)cn2)c(C)n1 [Compound 111]	0.033 µM	0.57 µM	0.107 µM	0.127 µM	0.061 µM	0.162 µM
CCn1cc(Nc2ncc(CCc3cc(C(=O)NC)cc(OC)c3F)cn2)cn1 [Compound 100, 3-(2-(2-(1-ethyl-1H-pyrazol-4-ylamino)pyrimidin-5-yl)ethyl)-4-fluoro-5-methoxy-N-methylbenzamide]	0.005 µM	0.094 µM	0.012 µM	0.024 µM	0.013 µM	0.021 µM
CNC(=O)c1cc(OC)c(F)c(COc2cnc(Nc3ccc(N4C[C@@H](C)N[C@@H](C)C4)cc3)nc2)c1F [Compound 199]	0.007 µM	0.041 µM	0.013 µM	0.018 µM	0.008 µM	0.02 µM
CNC(=O)c1cc(CCc2cnc(Nc3ccc(N4CCOCC4)cc3)nc2)c(Cl)c(OC)c1 [Compound 85]	0.009 µM	0.026 µM	0.015 µM	0.093 µM	0.017 µM	0.03 µM
CNC(=O)c1cc(COc2cnc(Nc3ccc(N4C[C@@H](C)N[C@@H](C)C4)nc3)nc2)c(Cl)c(OC)c1 [Compound 197]	0.007 µM	0.025 µM	0.008 µM	0.008 µM	0.009 µM	0.026 µM
CNC(=O)c1cc(CCc2cnc(Nc3cnn(CCCN(C)C)c3)nc2)c(F)c(OC)c1 [Compound 133]	0.008 µM	0.713 µM	0.02 µM	0.051 µM	0.016 µM	0.345 µM
CNC(=O)c1cc(CCc2cnc(Nc3ccc(C)nc3)nc2)c(F)c(OC)c1 [Compound 26]	0.012 µM	0.093 µM	0.02 µM	0.029 µM	0.027 µM	0.048 µM
